*1 amine or outer side, *2 acyl side, *3 side chain or, on linkers, in order; H or OH if unused. Where a SMILES comes first, the peptide text is derived from it. Side-chain parts run from the residue outwards. [ ]: non-standard residue; d: D form. The star is where a group is joined. C20 diacid = O=C(O)CCCCCCCCCCCCCCCCCCC(=O)*; C18 diacid = O=C(O)CCCCCCCCCCCCCCCCC(=O)*; αMePhe(2-F) = C[C@](N)(Cc1ccccc1F)C(=O)O; γGlu = O=C(O)[C@H](CCC(=O)[*:2])N[*:1]; 4Pal = N[C@@H](Cc1ccncc1)C(=O)O; αMeL = CC(C)C[C@](C)(N)C(=O)O; Orn = NCCC[C@H](N)C(=O)O; AEEA = NCCOCCOCC(=O)O; Aib = CC(C)(N)C(=O)O
What was measured:
human GcgR = biological target: T1, human GcgR (Homo sapiens, UniProt P47871); experiment: [125I]-Glucagon binding, SPA with WGA beads, 0.1% bacitracin; conditions: geometric mean, read-out: hGcgR Ki
T1 construct: expressed in transfected cells; crude membranes
T1 sequence (P47871 26-477): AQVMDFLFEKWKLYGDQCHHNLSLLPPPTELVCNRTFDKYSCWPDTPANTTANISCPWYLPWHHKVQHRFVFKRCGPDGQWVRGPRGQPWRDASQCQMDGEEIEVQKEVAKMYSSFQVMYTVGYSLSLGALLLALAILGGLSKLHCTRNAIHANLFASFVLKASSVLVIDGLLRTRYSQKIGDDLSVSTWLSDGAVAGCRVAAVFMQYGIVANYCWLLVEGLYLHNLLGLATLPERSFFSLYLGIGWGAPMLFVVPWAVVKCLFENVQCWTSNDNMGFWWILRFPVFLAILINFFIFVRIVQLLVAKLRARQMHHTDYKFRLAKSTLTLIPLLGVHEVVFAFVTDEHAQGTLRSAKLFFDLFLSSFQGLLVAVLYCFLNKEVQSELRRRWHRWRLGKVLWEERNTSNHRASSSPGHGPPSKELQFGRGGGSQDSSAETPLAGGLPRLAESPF
Outline: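 SPA competition binding with WGA beads on crude membranes from HEK293 cells stably expressing hGcgR. Buffer: 25 mM HEPES pH 7.4, 2.5 mM CaCl2, 1 mM MgCl2, 0.1% bacitracin, 0.003% Tween-20; 10-point 3-fold dilutions, NSB with 1 μM Gcg.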

human GIPR = biological target: T2, human GIPR (Homo sapiens, UniProt P48546); experiment: [125I]-GIP binding, SPA with WGA beads, 0.1% bacitracin; conditions: geometric mean, read-out: hGIPR Ki
T2 construct: expressed in transfected cells; crude membranes
T2 sequence (P48546 22-466): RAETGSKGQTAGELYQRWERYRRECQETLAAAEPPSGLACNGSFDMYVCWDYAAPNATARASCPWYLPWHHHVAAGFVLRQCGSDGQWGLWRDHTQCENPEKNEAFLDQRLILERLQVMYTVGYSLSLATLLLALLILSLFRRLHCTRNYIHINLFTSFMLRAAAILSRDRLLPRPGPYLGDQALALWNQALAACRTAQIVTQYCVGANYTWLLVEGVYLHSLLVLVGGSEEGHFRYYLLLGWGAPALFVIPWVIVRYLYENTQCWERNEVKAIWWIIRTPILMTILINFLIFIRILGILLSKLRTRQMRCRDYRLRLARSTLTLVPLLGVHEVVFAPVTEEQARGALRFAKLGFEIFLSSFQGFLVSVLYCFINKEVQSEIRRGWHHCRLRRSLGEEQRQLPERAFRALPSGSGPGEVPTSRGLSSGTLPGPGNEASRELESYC
Outline: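 Ki values are geometric means (SEM, n independent days), derived from four-parameter nonlinear regression of IC50. Membranes came from hGIPR-expressing CHO cells.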

SMILES | Ki (human GcgR) [pM] | Ki (human GIPR) [pM]
CC[C@H](C)[C@H](NC(=O)[C@H](CCCN)NC(=O)[C@H](CC(=O)O)NC(=O)[C@H](CC(C)C)NC(=O)[C@](C)(CC(C)C)NC(=O)[C@@H](NC(=O)[C@H](CO)NC(=O)[C@H](Cc1ccc(O)cc1)NC(=O)[C@H](CC(=O)O)NC(=O)[C@H](CO)NC(=O)[C@@H](NC(=O)[C@H](Cc1ccccc1)NC(=O)[C@@H](NC(=O)CNC(=O)[C@H](CCC(=O)O)NC(=O)C(C)(C)NC(=O)[C@@H](N)Cc1ccc(O)cc1)[C@@H](C)O)[C@@H](C)CC)[C@@H](C)CC)C(=O)N[C@@H](Cc1c[nH]cn1)C(=O)N[C@@H](CCC(N)=O)C(=O)NC(C)(C)C(=O)N[C@@H](CCC(=O)O)C(=O)N[C@@H](Cc1ccccc1)C(=O)N[C@H](C(=O)N[C@@H](CCC(=O)O)C(=O)N[C@@H](Cc1ccncc1)C(=O)N[C@@H](CCCCNC(=O)COCCOCCNC(=O)COCCOCCNC(=O)CC[C@H](NC(=O)CCCCCCCCCCCCCCCCCCC(=O)O)C(=O)O)C(=O)N[C@@H](CC(C)C)C(=O)N[C@@H](CCC(=O)O)C(=O)N[C@@H](C)C(=O)NCC(=O)N1CCC[C@H]1C(=O)N[C@@H](CO)C(=O)N[C@@H](CO)C(=O)NCC(=O)N[C@@H](C)C(=O)N1CCC[C@H]1C(=O)N1CCC[C@H]1C(=O)N1CCC[C@H]1C(=O)N[C@@H](CO)C(N)=O)C(C)C [Example 122] (H-Y[Aib]EGTFISDYSI[αMeL]LD[Orn]IHQ[Aib]EFVE[4Pal]K([AEEA-AEEA-γGlu-C20 diacid])LEAGPSSGAPPPS-NH2) | 957000 | 31.1
CC[C@H](C)[C@H](NC(=O)[C@H](Cc1ccccc1)NC(=O)[C@@H](NC(=O)CNC(=O)[C@H](CCC(=O)O)NC(=O)C(C)(C)NC(=O)[C@@H](N)Cc1ccc(O)cc1)[C@@H](C)O)C(=O)N[C@@H](CO)C(=O)N[C@@H](CC(=O)O)C(=O)N[C@@H](Cc1ccc(O)cc1)C(=O)N[C@@H](CO)C(=O)N[C@H](C(=O)N[C@@](C)(CC(C)C)C(=O)N[C@@H](CC(C)C)C(=O)N[C@@H](CC(=O)O)C(=O)N[C@@H](CCCCN)C(=O)N[C@@H](CCCCNC(=O)COCCOCCNC(=O)COCCOCCNC(=O)CC[C@H](NC(=O)CCCCCCCCCCCCCCCCCCC(=O)O)C(=O)O)C(=O)N[C@@H](Cc1c[nH]cn1)C(=O)N[C@@H](CCC(N)=O)C(=O)NC(C)(C)C(=O)N[C@@H](CC(=O)O)C(=O)N[C@@H](Cc1ccccc1)C(=O)N[C@H](C(=O)N[C@@H](CCC(=O)O)C(=O)N[C@@H](Cc1ccncc1)C(=O)N[C@@H](CC(C)C)C(=O)N[C@@H](CC(C)C)C(=O)N[C@@H](C)C(=O)N[C@@H](CCC(N)=O)C(=O)NCC(=O)N1CCC[C@H]1C(=O)N[C@@H](CO)C(=O)N[C@@H](CO)C(=O)NCC(=O)N[C@@H](C)C(=O)N1CCC[C@H]1C(=O)N1CCC[C@H]1C(=O)N1CCC[C@H]1C(=O)N[C@@H](CO)C(N)=O)C(C)C)[C@@H](C)CC [Example 79] (H-Y[Aib]EGTFISDYSI[αMeL]LDKK([AEEA-AEEA-γGlu-C20 diacid])HQ[Aib]DFVE[4Pal]LLAQGPSSGAPPPS-NH2) | 888000 | 22.9
CC[C@H](C)[C@H](NC(=O)[C@H](CCCN)NC(=O)[C@H](CC(=O)O)NC(=O)[C@H](CC(C)C)NC(=O)[C@](C)(CC(C)C)NC(=O)[C@@H](NC(=O)[C@H](CO)NC(=O)[C@H](Cc1ccc(O)cc1)NC(=O)[C@H](CC(=O)O)NC(=O)[C@H](CO)NC(=O)[C@@H](NC(=O)[C@H](Cc1ccccc1)NC(=O)[C@@H](NC(=O)CNC(=O)[C@H](CCC(=O)O)NC(=O)C(C)(C)NC(=O)[C@@H](N)Cc1ccc(O)cc1)[C@@H](C)O)[C@@H](C)CC)[C@@H](C)CC)C(=O)N[C@@H](Cc1c[nH]cn1)C(=O)N[C@@H](CCC(N)=O)C(=O)NC(C)(C)C(=O)N[C@@H](CCC(=O)O)C(=O)N[C@@H](Cc1ccccc1)C(=O)N[C@H](C(=O)N[C@@H](CCC(=O)O)C(=O)N[C@@H](Cc1ccc(O)cc1)C(=O)N[C@@H](CCCCNC(=O)COCCOCCNC(=O)COCCOCCNC(=O)CC[C@H](NC(=O)CCCCCCCCCCCCCCCCCCC(=O)O)C(=O)O)C(=O)N[C@@H](CC(C)C)C(=O)N[C@@H](CCC(=O)O)C(=O)NCC(=O)NCC(=O)N1CCC[C@H]1C(=O)N[C@@H](CO)C(=O)N[C@@H](CO)C(=O)NCC(=O)N[C@@H](C)C(=O)N1CCC[C@H]1C(=O)N1CCC[C@H]1C(=O)N1CCC[C@H]1C(=O)N[C@@H](CO)C(N)=O)C(C)C [Example 107] (H-Y[Aib]EGTFISDYSI[αMeL]LD[Orn]IHQ[Aib]EFVEYK([AEEA-AEEA-γGlu-C20 diacid])LEGGPSSGAPPPS-NH2) | 347000 | 72.2
CC[C@H](C)[C@H](NC(=O)[C@H](CO)NC(=O)[C@H](Cc1ccc(O)cc1)NC(=O)[C@H](CC(=O)O)NC(=O)[C@H](CO)NC(=O)[C@@H](NC(=O)[C@](C)(Cc1ccccc1F)NC(=O)[C@@H](NC(=O)CNC(=O)[C@H](CCC(=O)O)NC(=O)[C@H](C)NC(=O)[C@@H](Cc1ccc(O)cc1)NC(C)=O)[C@@H](C)O)[C@@H](C)CC)C(=O)N[C@@H](C)C(=O)N[C@@H](CC(C)C)C(=O)N[C@@H](CC(=O)O)C(=O)N[C@@H](CCCCN)C(=O)N[C@@H](CCCCNC(=O)COCCOCCNC(=O)COCCOCCNC(=O)CC[C@H](NC(=O)CCCCCCCCCCCCCCCCC(=O)O)C(=O)O)C(=O)N[C@@H](Cc1c[nH]cn1)C(=O)N[C@@H](CCC(N)=O)C(=O)NC(C)(C)C(=O)N[C@@H](CCC(=O)O)C(=O)N[C@@H](Cc1ccccc1)C(=O)N[C@H](C(=O)N[C@@H](CC(N)=O)C(=O)N[C@@H](Cc1ccc(O)cc1)C(=O)N[C@@H](CC(C)C)C(=O)N[C@@H](CC(C)C)C(=O)N[C@@H](C)C(=O)NCC(=O)NCC(=O)N1CCC[C@H]1C(=O)N[C@@H](CO)C(=O)N[C@@H](CO)C(=O)NCC(=O)N[C@@H](C)C(=O)N1CCC[C@H]1C(=O)N1CCC[C@H]1C(=O)N1CCC[C@H]1C(=O)N[C@@H](CO)C(N)=O)C(C)C [Example 30] (Ac-[dY]AEGT[αMePhe(2-F)]ISDYSIALDKK([AEEA-AEEA-γGlu-C18 diacid])HQ[Aib]EFVNYLLAGGPSSGAPPPS-NH2) | 407000 | 37
CC[C@H](C)[C@H](NC(=O)[C@H](CO)NC(=O)[C@H](Cc1ccc(O)cc1)NC(=O)[C@H](CC(=O)O)NC(=O)[C@H](CO)NC(=O)[C@@H](NC(=O)[C@H](Cc1ccccc1)NC(=O)[C@@H](NC(=O)CNC(=O)[C@H](CCC(=O)O)NC(=O)[C@@H](C)NC(=O)[C@@H](N)Cc1ccc(O)cc1)[C@@H](C)O)[C@@H](C)CC)C(=O)N[C@@H](CC(C)C)C(=O)N[C@@H](CC(C)C)C(=O)N[C@@H](CC(=O)O)C(=O)N[C@@H](CCCCN)C(=O)N[C@@H](CCCCNC(=O)COCCOCCNC(=O)COCCOCCNC(=O)CC[C@H](NC(=O)CCCCCCCCCCCCCCCCC(=O)O)C(=O)O)C(=O)N[C@@H](C)C(=O)N[C@@H](CCC(N)=O)C(=O)NC(C)(C)C(=O)N[C@@H](CCC(=O)O)C(=O)N[C@@H](Cc1ccccc1)C(=O)N[C@H](C(=O)N[C@@H](CC(N)=O)C(=O)N[C@@H](Cc1c[nH]c2ccccc12)C(=O)N[C@@H](CC(C)C)C(=O)N[C@@H](CC(C)C)C(=O)N[C@@H](C)C(=O)N[C@@H](CCC(N)=O)C(=O)NCC(=O)N1CCC[C@H]1C(=O)N[C@@H](CO)C(=O)N[C@@H](CO)C(=O)NCC(=O)N[C@@H](C)C(=O)N1CCC[C@H]1C(=O)N1CCC[C@H]1C(=O)N1CCC[C@H]1C(=O)N[C@@H](CO)C(N)=O)C(C)C [Example 20] (H-Y[dA]EGTFISDYSILLDKK([AEEA-AEEA-γGlu-C18 diacid])AQ[Aib]EFVNWLLAQGPSSGAPPPS-NH2) | 216000 | 47.7
CC[C@H](C)[C@H](NC(=O)[C@H](CO)NC(=O)[C@H](Cc1ccc(O)cc1)NC(=O)[C@H](CC(=O)O)NC(=O)[C@H](CO)NC(=O)[C@@H](NC(=O)[C@H](Cc1ccccc1)NC(=O)[C@@H](NC(=O)CNC(=O)[C@H](CCC(=O)O)NC(=O)[C@@H](C)NC(=O)[C@@H](N)Cc1ccc(O)cc1)[C@@H](C)O)[C@@H](C)CC)C(=O)N[C@@H](CC(C)C)C(=O)N[C@@H](CC(C)C)C(=O)N[C@@H](CC(=O)O)C(=O)N[C@@H](CCCCN)C(=O)N[C@@H](CCCCNC(=O)COCCOCCNC(=O)COCCOCCNC(=O)CC[C@H](NC(=O)CCCCCCCCCCCCCCCCCCC(=O)O)C(=O)O)C(=O)N[C@@H](Cc1c[nH]cn1)C(=O)N[C@@H](CCC(N)=O)C(=O)N[C@@H](CCC(N)=O)C(=O)N[C@@H](CC(=O)O)C(=O)N[C@@H](Cc1ccccc1)C(=O)N[C@H](C(=O)N[C@@H](CC(N)=O)C(=O)N[C@@H](Cc1c[nH]c2ccccc12)C(=O)N[C@@H](CC(C)C)C(=O)N[C@@H](CC(C)C)C(=O)N[C@@H](C)C(=O)NCC(=O)NCC(=O)N1CCC[C@H]1C(=O)N[C@@H](CO)C(=O)N[C@@H](CO)C(=O)NCC(=O)N[C@@H](C)C(=O)N1CCC[C@H]1C(=O)N1CCC[C@H]1C(=O)N1CCC[C@H]1C(=O)N[C@@H](CO)C(N)=O)C(C)C [Example 10] (H-Y[dA]EGTFISDYSILLDKK([AEEA-AEEA-γGlu-C20 diacid])HQQDFVNWLLAGGPSSGAPPPS-NH2) | > 230000 | 159
